Test results from patent publication US8889592B2, “Insecticidal and/or herbicidal composition having improved activity based on spiroheterocyclically substituted tetramic acid derivatives” (Bayer CropScience AG, priority 2010, dated 2014).

Assays:
[1] = Penetration through enzymatically isolated apple leaf cuticles (20° C., 60% rh); assay type: in vitro ADME, apple trees of the cultivar Golden Delicious; details: 0.1 g/l
Description: (§1) In this test, the penetration of active compounds through enzymatically isolated cuticles of apple tree leaves is measured.
(§2) Use is made of leaves which, when fully developed, are cut from apple trees of the cultivar Golden Delicious. The cuticles are isolated by • initially filling leaf discs punched out and stained with dye on the underside by vacuum infiltration with a pectinase solution (0.2 to 2% strength) buffered to a pH between 3 and 4, • then adding sodium azide and • allowing the leaf discs treated in this manner to stand until the original leaf structure has dissolved and the non-cellular cuticles have detached.
(§3) Only the cuticles, free from hairs and stoma, of the upper sides of the leaves are then used. They are washed repeatedly alternating with water and a buffer solution of pH 7. The clean cuticles obtained are then mounted on Teflon plates and smoothed and dried with a gentle stream of air.
(§4) In the next step, the cuticle membranes obtained in this manner are placed into stainless steel diffusion cells (=transport chambers) for membrane transport studies. To this end, the cuticles are placed with a pincette into the centre of the edges, coated with silicone fat, of the diffusion cells and closed with a ring, which is also treated with fat. The arrangement is chosen such that the morphological outside of the cuticles is facing outwards, i.e. exposed to air, whereas the original inside is facing the interior of the diffusion cell.
(§5) The diffusion cells are filled with a 30% strength ethylene glycol/water solution. To determine the penetration, in each case 10 μl of the spray liquor of the composition below are applied to the outside of the cuticles. The spray liquor is prepared using local tap water of medium hardness.
(§6) After the application of the spray liquors, the water is allowed to evaporate and the chambers are inverted and placed into thermostatic tubs in which temperature and atmospheric humidity over the cuticles can be adjusted using a gentle stream of air onto the cuticles with the spray coating (20° C., 60% rh). At regular intervals, an autosampler takes aliquots and the active compound content is determined by HPLC.
(§7) The stated numbers are average values of 8 to 10 measurements. It is clearly evident that even the ammonium salts on their own improve the penetration markedly, and that, together with RME, a superadditive (synergistic) effect is present.

Myzus persicae = Myzus persicae test (activity boost through ammonium salts and penetrants); assay type: in vivo, green peach aphid (Myzus persicae); details: for Kill (%) after 6 d +AS + RME per 1000 ppm: 1000 ppm each; for Kill (%) after 6 d: no additive, bell pepper plants, spray
Description: (§8) Solvent: 7 parts by weight of dimethylformamide
(§9) Emulsifier: 2 parts by weight of alkylaryl polyglycol ether
(§10) To produce a suitable preparation of active compound, 1 part by weight of active compound is mixed with the stated amounts of solvent and emulsifier, and the concentrate is diluted with water to the desired concentration. For application with ammonium salts or phosphonium salts and penetration promoters (rapeseed oil methyl ester 500 EW) these are in each case added in a concentration of 1000 ppm to the spray liquor.
Bell pepper plants (Capsicum annuum) heavily infested by the green peach aphid (Myzus persicae) are sprayed to runoff point with the preparation of active compound at the desired concentration.
After the desired period of time, the kill in % is determined. 100% means that all animals have been killed; 0% means that none of the animals have been killed.

LOLRI = test: Herbicidal post-emergence action; assay type: in vivo, Annual Ryegrass (resistant); details: 6.25 g of a.i./ha, 28 days after application
Description: (§11) Seeds of monocotyledonous weed plants are placed in sandy loam in wood fibre pots, covered with soil and cultivated in a greenhouse under good growth conditions. 3-4 weeks after sowing, the test plants are treated at the two- to three-leaf stage. The test compound, formulated as a wettable powder (WP), is then, at various dosages with a water application rate of 300 l/ha (converted), with the stated adjuvants added, sprayed onto the green parts of the plants. After the test plants have been kept in the greenhouse under optimum growth conditions for about 4 weeks, the effect of the preparations is rated visually in comparison to untreated controls (herbicidal effect in percent: 100% effect=the plants have died, 0% effect=like control plants).

[2] = Penetration through enzymatically isolated apple leaf cuticles (35° C., 60% rh); assay type: in vitro ADME, apple trees of the cultivar Golden Delicious; details: 0.2 g/l; for Penetration after 48 h/% EC: 500 ppm in DMF/emulsifier W 7:1 (w/w), no additive; for Penetration after 48 h/% EC + AS (0.7 g/l): with ammonium sulphate; for Penetration after 48 h/% EC + RME (1 g/l): with rapeseed oil methyl ester; for Penetration after 48 h/% EC + RME (1 g/l) + AS (0.7 g/l): with rapeseed oil methyl ester and ammonium sulphate
Description: as §1, §2, §3, §4, §5
as §6, with “(35°” for “(20°”
as §7

LOLMU = test: Herbicidal post-emergence action; assay type: in vivo, Italian Ryegrass; details: 6.25 g of a.i./ha, 28 days after application
Description: as §11

ALOMY = test: Herbicidal post-emergence action; assay type: in vivo, Blackgrass (not resistant); details: 6.25 g of a.i./ha, 28 days after application
Description: as §11

ALOMY (Peldon) = test: Herbicidal post-emergence action; assay type: in vivo, Blackgrass (resistant); details: 6.25 g of a.i./ha, 28 days after application
Description: as §11

Aphis gossypii = Aphis gossypii test; assay type: in vivo, cotton aphid (Aphis gossypii); details: for Kill (%) after 6 d +AS + RME per 1000 ppm: 1000 ppm each; for Kill (%) after 6 d: no additive, cotton plants, spray
Description: as §8, §9
as §10, with “diluted with emulsifier-containing water to” for “diluted with water to”, “1000 ppm of a.i. to the” for “1000 ppm to the”
Cotton plants (Gossypium hirsutum) which are heavily infested by the cotton aphid (Aphis gossypii) are sprayed to runoff point with the preparation of active compound at the desired concentration.
After the desired period of time, the kill in % is determined. 100% means that all aphids have been killed; 0% means that none of the aphids have been killed.

[3] = 20 ppm active compound + ammonium sulphate 1000 ppm
[4] = 20 ppm active compound + ammonium sulphate and rapeseed oil methyl ester
[5] = 20 ppm active compound + rapeseed oil methyl ester 1000 ppm
[6] = with ammonium sulphate (2 kg/ha)
[7] = with ammonium sulphate (2 kg/ha) and Genapol LRO (1 l/ha)
[8] = 4 ppm active compound + ammonium sulphate 1000 ppm
[9] = 4 ppm active compound + ammonium sulphate and rapeseed oil methyl ester
[10] = 4 ppm active compound + rapeseed oil methyl ester 1000 ppm

## CON1CCC2(CC1)NC(=O)C(c1cc(C)ccc1C)=C2O [Example I-a-1]
[1]; 500 ppm in DMF/emulsifier W 7:1 (w/w), no additive
  Penetration after 24 h/% EC: 0.7%
[1]; with ammonium sulphate
  Penetration after 24 h/% EC + AS (1 g/D): 17%
[1]; with diammonium hydrogenphosphate
  Penetration after 24 h/% EC + DAHP (1 g/l): 15%
[1]; with rapeseed oil methyl ester
  Penetration after 24 h/% EC + RME (1 g/l): 1.7%
[1]; with rapeseed oil methyl ester and ammonium sulphate
  Penetration after 24 h/% EC + RME (1 g/l) + AS (1 g/l): 21%
[1]; with rapeseed oil methyl ester and diammonium hydrogenphosphate
  Penetration after 24 h/% EC + RME (1 g/l) + DAHP (1 g/l): 28%
Myzus persicae; [3]
  Kill (%) after 6 d +AS 1000 ppm: 0%
Myzus persicae; [4]
  Kill (%) after 6 d +AS + RME per 1000 ppm: 60%
Myzus persicae; [5]
  Kill (%) after 6 d +RME 1000 ppm: 0%
Myzus persicae; 20 ppm active compound
  Kill (%) after 6 d: 0%

## CCc1cc(C)cc(CC)c1C1=C(O)C2(CCN(OC)CC2)NC1=O [Example I-a-3]
LOLRI; with Genapol LRO (1 l/ha)
  herbicidal effect, a.i. + GE: 20%
LOLRI; [6]
  herbicidal effect, a.i. + AS: 0%
LOLRI; [7]
  herbicidal effect, a.i. + AS + GE: 60%
LOLRI; post-emergence, no adjuvant
  herbicidal effect, a.i.: 0%
[2]
  Penetration after 48 h/% EC: 1%
  Penetration after 48 h/% EC + AS (0.7 g/l): 9%
  Penetration after 48 h/% EC + RME (1 g/l): 9%
  Penetration after 48 h/% EC + RME (1 g/l) + AS (0.7 g/l): 33%
LOLMU; with Genapol LRO (1 l/ha)
  herbicidal effect, a.i. + GE: 50%
LOLMU; [6]
  herbicidal effect, a.i. + AS: 40%
LOLMU; [7]
  herbicidal effect, a.i. + AS + GE: 80%
LOLMU; post-emergence, no adjuvant
  herbicidal effect, a.i.: 20%
ALOMY; with Genapol LRO (1 l/ha)
  herbicidal effect, a.i. + GE: 70%
ALOMY; [6]
  herbicidal effect, a.i. + AS: 0%
ALOMY; [7]
  herbicidal effect, a.i. + AS + GE: 90%
ALOMY; post-emergence, no adjuvant
  herbicidal effect, a.i.: 0%
ALOMY (Peldon); with Genapol LRO (1 l/ha)
  herbicidal effect, a.i. + GE: 20%
ALOMY (Peldon); [6]
  herbicidal effect, a.i. + AS: 0%
ALOMY (Peldon); [7]
  herbicidal effect, a.i. + AS + GE: 60%
ALOMY (Peldon); post-emergence, no adjuvant
  herbicidal effect, a.i.: 0%

## CCON1CCC2(CC1)NC(=O)C(c1c(C)cc(C)cc1C)=C2O [Example I-a-4]
[2]
  Penetration after 48 h/% EC: 0%
  Penetration after 48 h/% EC + AS (0.7 g/l): 3%
  Penetration after 48 h/% EC + RME (1 g/l): 6%
  Penetration after 48 h/% EC + RME (1 g/l) + AS (0.7 g/l): 17%

## CON1CCC2(CC1)NC(=O)C(c1c(C)cc(C)cc1C)=C2O [I-a-2]
Aphis gossypii; [8]
  Kill (%) after 6 d +AS 1000 ppm: 0%
Aphis gossypii; [9]
  Kill (%) after 6 d +AS + RME per 1000 ppm: 90%
Aphis gossypii; [10]
  Kill (%) after 6 d +RME 1000 ppm: 40%
Aphis gossypii; 4 ppm active compound
  Kill (%) after 6 d: 0%
Aphis gossypii; [3]
  Kill (%) after 6 d +AS 1000 ppm: 85%
Aphis gossypii; [4]
  Kill (%) after 6 d +AS + RME per 1000 ppm: 95%
Aphis gossypii; [5]
  Kill (%) after 6 d +RME 1000 ppm: 95%
Aphis gossypii; 20 ppm active compound
  Kill (%) after 6 d: 0%
Myzus persicae; 0.8 ppm active compound + ammonium sulphate 1000 ppm
  Kill (%) after 6 d +AS 1000 ppm: 0%
Myzus persicae; 0.8 ppm active compound + ammonium sulphate and rapeseed oil methyl ester
  Kill (%) after 6 d +AS + RME per 1000 ppm: 90%
Myzus persicae; 0.8 ppm active compound + rapeseed oil methyl ester 1000 ppm
  Kill (%) after 6 d +RME 1000 ppm: 0%
Myzus persicae; 0.8 ppm active compound
  Kill (%) after 6 d: 0%
Myzus persicae; [8]
  Kill (%) after 6 d +AS 1000 ppm: 55%
Myzus persicae; [9]
  Kill (%) after 6 d +AS + RME per 1000 ppm: 95%
Myzus persicae; [10]
  Kill (%) after 6 d +RME 1000 ppm: 60%
Myzus persicae; 4 ppm active compound
  Kill (%) after 6 d: 0%

## CCOC(=O)OC1=C(c2cc(C)ccc2C)C(=O)NC12CCN(OC)CC2 [I-c-1]
Aphis gossypii; [3]
  Kill (%) after 6 d +AS 1000 ppm: 0%
Aphis gossypii; [4]
  Kill (%) after 6 d +AS + RME per 1000 ppm: 90%
Aphis gossypii; [5]
  Kill (%) after 6 d +RME 1000 ppm: 80%
Aphis gossypii; 20 ppm active compound
  Kill (%) after 6 d: 0%
Myzus persicae; [3]
  Kill (%) after 6 d +AS 1000 ppm: 0%
Myzus persicae; [4]
  Kill (%) after 6 d +AS + RME per 1000 ppm: 98%
Myzus persicae; [5]
  Kill (%) after 6 d +RME 1000 ppm: 20%
Myzus persicae; 20 ppm active compound
  Kill (%) after 6 d: 0%
